The assay has as its target B-Raf (V600E)-kinase (Homo sapiens (Human), UniProt P15056, V600E). Description: Kinase test B-RAF (V600E). In kind it is biochemical. In a few lines: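 B-Raf (V600E) (0.5 ng) preincubated with compound 24 h at RT (5% DMSO), then reacted 60 min at RT with 250 μM ATP and biotinylated MEK1 as substrate. Phospho-MEK (Ser217/221) captured on streptavidin and detected by europium time-resolved fluorescence; IC50 from dose-response curves.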

The mark [1] stands for this setting: B-RAF (V600E) kinase test, 250 μM ATP.

Structures are written as SMILES. Like-named read-outs stand apart in the source and are kept apart here.

By IC50 is commonly meant the concentration that gives 50% inhibition.

B-Raf (V600E)-kinase, sequence (P15056 whole entry V600E): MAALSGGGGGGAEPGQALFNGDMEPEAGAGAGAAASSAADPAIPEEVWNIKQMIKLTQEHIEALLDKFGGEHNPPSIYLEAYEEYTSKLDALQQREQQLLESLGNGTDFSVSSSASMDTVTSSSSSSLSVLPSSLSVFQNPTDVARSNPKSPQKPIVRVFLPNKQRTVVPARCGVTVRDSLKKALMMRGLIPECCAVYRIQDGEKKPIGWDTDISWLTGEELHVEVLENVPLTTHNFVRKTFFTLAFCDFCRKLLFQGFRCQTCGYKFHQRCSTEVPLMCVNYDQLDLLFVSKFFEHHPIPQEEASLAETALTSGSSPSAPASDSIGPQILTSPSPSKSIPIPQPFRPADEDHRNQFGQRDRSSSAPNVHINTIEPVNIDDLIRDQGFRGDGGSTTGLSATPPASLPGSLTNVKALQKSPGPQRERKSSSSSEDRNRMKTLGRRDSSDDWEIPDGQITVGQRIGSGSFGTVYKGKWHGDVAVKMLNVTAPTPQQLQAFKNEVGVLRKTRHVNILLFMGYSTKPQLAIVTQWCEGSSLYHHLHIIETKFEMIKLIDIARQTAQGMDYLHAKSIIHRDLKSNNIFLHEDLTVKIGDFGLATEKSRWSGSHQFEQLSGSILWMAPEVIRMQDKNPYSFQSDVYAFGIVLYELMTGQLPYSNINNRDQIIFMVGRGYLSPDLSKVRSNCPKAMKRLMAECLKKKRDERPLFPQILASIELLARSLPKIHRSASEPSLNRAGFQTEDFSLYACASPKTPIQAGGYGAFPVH

Under setting [1], `Cc1ccc(C(=O)Nc2nnc(C(F)(F)F)s2)cc1Nc1ncnc2cnc(N3CCCC3)nc12` [III-264] had a concentration for half-maximal inhibition (IC50) of 2600 nM. The same measure, in the same setting: the value for `Cc1ccc(C(=O)Nc2ccc(F)c(C(F)(F)F)c2)cc1Nc1ncnc2cnc(N3CCCC3)nc12` [III-265] was 4 nM; that for `Cc1ccc(C(=O)Nc2cccc(C(F)(F)F)c2)cc1Nc1ncnc2cnc(N3CCCC3)nc12` [III-266] was 1 nM; that for `Cc1ccc(C(=O)NCc2ccc(C(C)(C)C)cc2)cc1Nc1ncnc2cnc(N3CCCC3)nc12` [III-267] was 836 nM.

With `COc1ccc(C(F)(F)F)cc1NC(=O)c1ccc(C)c(Nc2ncnc3cnc(N4CCCC4)nc23)c1` [III-268], it took 120 nM to reach half-maximal inhibition under setting [1] (IC50).

Regarding `Cc1ccc(C(=O)Nc2ccc(Cl)c(C(F)(F)F)c2)cc1Nc1ncnc2cnc(N3CCCC3)nc12` [III-269], the midpoint of inhibition under setting [1], the IC50, lay at 33 nM. `Cc1ccc(C(=O)Nc2cccc(OC(F)(F)F)c2)cc1Nc1ncnc2cnc(N3CCCC3)nc12` [III-270]: under setting [1], the IC50 stood at 20 nM. `Cc1ccc(C(=O)Nc2cccc(N(C)C)c2)cc1Nc1ncnc2cnc(N3CCCC3)nc12` [III-271] showed an IC50 under setting [1] of 10 nM. Consider `Cc1ccc(C(=O)Nc2cccc(C(C)(C)C)c2)cc1Nc1ncnc2cnc(N3CCCC3)nc12` [III-272], for which half-maximal inhibition under setting [1] (IC50) required 2 nM.

As to `Cc1ccc(C(=O)Nc2ccc(C#N)c(C(F)(F)F)c2)cc1Nc1ncnc2cnc(N3CCCC3)nc12` [III-273], 31 nM corresponded to half-maximal inhibition under setting [1] (IC50).

Consider `Cc1ccc(C(=O)Nc2cccc(S(=O)(=O)N(C)C)c2)cc1Nc1ncnc2cnc(N3CCCC3)nc12` [III-274], for which 3 nM corresponded to half-maximal inhibition under setting [1] (IC50). Still for that read-out and setting: for `Cc1ccc(C(=O)Nc2cc(C(F)(F)F)ccn2)cc1Nc1ncnc2cnc(N3CCCC3)nc12` [III-275] the value was 2 nM; for `Cc1ccc(C(=O)Nc2cccc(C(C)(C)C#N)c2)cc1Nc1ncnc2cnc(N3CCCC3)nc12` [III-276], 6 nM.

The compound `COc1c(NC(=O)c2ccc(C)c(Nc3ncnc4cnc(N5CCCC5)nc34)c2)cc(C(C)(C)C)cc1NS(C)(=O)=O` [III-277] displayed an IC50 under setting [1] of 23 nM.

The compound `Cc1ccc(C(=O)NCc2cccc(C(C)(C)C)c2)cc1Nc1ncnc2cnc(N3CCCC3)nc12` [III-278] gave an IC50 under setting [1] of 88 nM. Compound `Cc1ccc(C(=O)Nc2cc(C(F)(F)F)ccn2)cc1Nc1ncnc2cnc(N(C)CCN(C)C)nc12` [III-279] registered an IC50 under setting [1] of 6 nM. Take `Cc1ccc(C(=O)Nc2nnc(C(F)(F)F)s2)cc1Nc1ncnc2cnc(N(C)CCN(C)C)nc12` [III-280]: under setting [1], the IC50 was 10000 nM. On the same count and under the same terms, for `Cc1ccc(C(=O)Nc2ccc(C#N)c(C(F)(F)F)c2)cc1Nc1ncnc2cnc(N(C)CCN(C)C)nc12` [III-281] the value was 5 nM; for `Cc1ccc(C(=O)Nc2nnc(C(F)(F)F)s2)cc1Nc1ncnc2cnc(N3CCCN(C)CC3)nc12` [III-282], 1400 nM; for `Cc1ccc(C(=O)Nc2cc(C(F)(F)F)ccn2)cc1Nc1ncnc2cnc(N3CCCN(C)CC3)nc12` [III-283], 3 nM. The same measure, in the same setting: for `Cc1ccc(C(=O)Nc2ccc(C#N)c(C(F)(F)F)c2)cc1Nc1ncnc2cnc(N3CCCN(C)CC3)nc12` [III-284] the value was 3 nM. Still for that read-out and setting: the value for `Cc1ccc(C(=O)Nc2nnc(C(F)(F)F)s2)cc1Nc1ncnc2cnc(N3CC[C@H](F)C3)nc12` [III-285] was 274 nM. With `Cc1ccc(C(=O)Nc2ccc(F)c(C(F)(F)F)c2)cc1Nc1ncnc2cnc(N3CC[C@H](F)C3)nc12` [III-286], the IC50 under setting [1] stood at 3 nM.

As for `Cc1ccc(C(=O)Nc2cccc(C(F)(F)F)c2)cc1Nc1ncnc2cnc(N3CC[C@H](F)C3)nc12` [III-287], under setting [1], the IC50 was found to be 1 nM. `COc1ccc(C(F)(F)F)cc1NC(=O)c1ccc(C)c(Nc2ncnc3cnc(N4CC[C@H](F)C4)nc23)c1` [III-288] displayed a concentration for half-maximal inhibition (IC50) under setting [1] of 2 nM. Still for that read-out and setting: for `Cc1ccc(C(=O)Nc2ccc(Cl)c(C(F)(F)F)c2)cc1Nc1ncnc2cnc(N3CC[C@H](F)C3)nc12` [III-289] the value was 13 nM; for `Cc1ccc(C(=O)Nc2cccc(OC(F)(F)F)c2)cc1Nc1ncnc2cnc(N3CC[C@H](F)C3)nc12` [III-290], 1 nM.

Compound `COc1ccc(C(C)(C)C)cc1NC(=O)c1ccc(C)c(Nc2ncnc3cnc(N4CC[C@H](F)C4)nc23)c1` [III-291] showed an IC50 under setting [1] of 21 nM. The same measure, in the same setting: the value for `Cc1ccc(C(=O)Nc2ccc(C#N)c(C(F)(F)F)c2)cc1Nc1ncnc2cnc(N3CC[C@H](F)C3)nc12` [III-292] was 36 nM; that for `Cc1ccc(C(=O)Nc2cccc(S(=O)(=O)N(C)C)c2)cc1Nc1ncnc2cnc(N3CC[C@H](F)C3)nc12` [III-293] was 7 nM; that for `Cc1ccc(C(=O)Nc2cccc(C(C)(C)C)c2)cc1Nc1ncnc2cnc(N3CCOCC3)nc12` [III-294] was 1 nM. The same measure, in the same setting: the value for `COc1c(NC(=O)c2ccc(C)c(Nc3ncnc4cnc(N5CC[C@H](F)C5)nc34)c2)cc(C(C)(C)C)cc1NS(C)(=O)=O` [III-295] was 17 nM. Same read-out and setting: the value for `Cc1ccc(C(=O)Nc2nnc(C(F)(F)F)s2)cc1Nc1ncnc2cnc(N3CCN(C)CC3)nc12` [III-296] was 198 nM.

`Cc1ccc(C(=O)Nc2ccc(F)c(C(F)(F)F)c2)cc1Nc1ncnc2cnc(N3CCN(C)CC3)nc12` [III-297]: the IC50 under setting [1] amounted to 1 nM. The compound `Cc1ccc(C(=O)Nc2cccc(C(F)(F)F)c2)cc1Nc1ncnc2cnc(N3CCN(C)CC3)nc12` [III-298] came in with an IC50 under setting [1] of 1 nM. The same measure, in the same setting: the value for `COc1ccc(C(F)(F)F)cc1NC(=O)c1ccc(C)c(Nc2ncnc3cnc(N4CCN(C)CC4)nc23)c1` [III-299] was 5 nM. With `Cc1ccc(C(=O)Nc2ccc(Cl)c(C(F)(F)F)c2)cc1Nc1ncnc2cnc(N3CCN(C)CC3)nc12` [III-300], under setting [1], inhibition was half-maximal at 4 nM (IC50). `Cc1ccc(C(=O)Nc2cccc(OC(F)(F)F)c2)cc1Nc1ncnc2cnc(N3CCN(C)CC3)nc12` [III-301] gave an IC50 under setting [1] of less than 1 nM. The same measure, in the same setting: the value for `Cc1ccc(C(=O)NCc2ccc(C(C)(C)C)cc2)cc1Nc1ncnc2cnc(N3CCOCC3)nc12` [III-302] was 115 nM; that for `Cc1ccc(C(=O)Nc2cccc(S(=O)(=O)N(C)C)c2)cc1Nc1ncnc2cnc(N3CCN(C)CC3)nc12` [III-303] was 7 nM. The same measure, in the same setting: for `COc1ccc(C(F)(F)F)cc1NC(=O)c1ccc(C)c(Nc2ncnc3cnc(N4CCOCC4)nc23)c1` [III-304] the value was less than 1 nM; for `Cc1ccc(C(=O)Nc2cccc(C(C)(C)C#N)c2)cc1Nc1ncnc2cnc(N3CCN(C)CC3)nc12` [III-305], 2 nM. The same measure, in the same setting: for `COc1ccc(C(C)(C)C)cc1NC(=O)c1ccc(C)c(Nc2ncnc3cnc(N4CCOCC4)nc23)c1` [III-306] the value was 4 nM; for `Cc1ccc(C(=O)NCc2ccc(C(F)(F)F)cc2)cc1Nc1ncnc2cnc(N3CCOCC3)nc12` [III-307], 114 nM; for `Cc1ccc(C(=O)NCc2cccc(C(C)(C)C)c2)cc1Nc1ncnc2cnc(N3CCCCC3)nc12` [III-308], 47 nM. `Cc1ccc(C(=O)Nc2cccc(N(C)C)c2)cc1Nc1ncnc2cnc(N3CCOCC3)nc12` [III-309] gave an IC50 under setting [1] of 4 nM. The same measure, in the same setting: the value for `Cc1ccc(C(=O)NCc2cccc(C(C)(C)C)c2)cc1Nc1ncnc2cnc(N3CCN(C)CC3)nc12` [III-310] was 50 nM.

In turn, `Cc1ccc(C(=O)Nc2ccc(C#N)c(C(F)(F)F)c2)cc1Nc1ncnc2cnc(N3CCN(C)CC3)nc12` [III-311] registered an IC50 of 2 nM. `Cc1ccc(C(=O)Nc2nnc(C(F)(F)F)s2)cc1Nc1ncnc2cnc(N3CCOCC3)nc12` [III-313] gave an IC50 under setting [1] of 200 nM. As for `Cc1ccc(C(=O)Nc2ccc(F)c(C(F)(F)F)c2)cc1Nc1ncnc2cnc(N3CCOCC3)nc12` [III-314], it took 9 nM to reach half-maximal inhibition under setting [1] (IC50). As to `Cc1ccc(C(=O)Nc2cccc(C(F)(F)F)c2)cc1Nc1ncnc2cnc(N3CCOCC3)nc12` [III-315], the IC50 under setting [1] was less than 1 nM. The same measure, in the same setting: the value for `CN(C)CCN(C)c1ncc2ncnc(Nc3cc(C(=O)Nc4cc(C(C)(C)C)on4)ccc3F)c2n1` [III-316] was 3 nM.

For the compound `CN(CCN1CCCC1)c1ncc2ncnc(Nc3cc(C(=O)Nc4cc(C(C)(C)C)on4)ccc3F)c2n1` [III-317], the IC50 under setting [1] was found to be 14 nM. Under setting [1], `CN1CCN(c2ncc3ncnc(Nc4cc(C(=O)Nc5cc(C(C)(C)C)on5)ccc4F)c3n2)CC1` [III-318] gave an IC50 of 2 nM. Still for that read-out and setting: for `Cc1ccc(C(=O)Nc2cccc(S(=O)(=O)N(C)C)c2)cc1Nc1ncnc2cnc(N3CCOCC3)nc12` [III-320] the value was 2 nM. Still for that read-out and setting: for `Cc1ccc(C(=O)Nc2cc(C(F)(F)F)ccn2)cc1Nc1ncnc2cnc(N3CCOCC3)nc12` [III-321] the value was less than 1 nM; for `Cc1ccc(C(=O)Nc2cccc(C(C)(C)C#N)c2)cc1Nc1ncnc2cnc(N3CCOCC3)nc12` [III-322], 1 nM; for `COc1c(NC(=O)c2ccc(C)c(Nc3ncnc4cnc(N5CCOCC5)nc34)c2)cc(C(C)(C)C)cc1NS(C)(=O)=O` [III-323], 11 nM. Regarding `Cc1ccc(C(=O)NCc2cccc(C(F)(F)F)c2)cc1Nc1ncnc2cnc(N3CCOCC3)nc12` [III-324], the IC50 under setting [1] was 55 nM. In turn, `Cc1ccc(C(=O)NC2CCCCC2)cc1Nc1ncnc2cnc(N3CCOCC3)nc12` [III-325] registered an IC50 under setting [1] of 1400 nM.

For `Cc1ccc(C(=O)Nc2ccccc2)cc1Nc1ncnc2cnc(N3CCOCC3)nc12` [III-326], half-maximal inhibition under setting [1] (IC50) was put at 292 nM.

Turning to `Cc1ccc(C(=O)NCc2cccc(C(C)(C)C)c2)cc1Nc1ncnc2cnc(N3CCOCC3)nc12` [III-327], half-maximal inhibition under setting [1] (IC50) was put at 56 nM.

Regarding `Cc1ccc(C(=O)Nc2nnc(C(F)(F)F)s2)cc1Nc1ncnc2cnc(N3CCCCC3)nc12` [III-328], the IC50 under setting [1] was 442 nM. Same read-out and setting: for `Cc1ccc(C(=O)Nc2ccc(F)c(C(F)(F)F)c2)cc1Nc1ncnc2cnc(N3CCCCC3)nc12` [III-329] the value was 17 nM; for `Cc1ccc(C(=O)Nc2cccc(C(F)(F)F)c2)cc1Nc1ncnc2cnc(N3CCCCC3)nc12` [III-330], 6 nM. Same read-out and setting: for `Cc1ccc(C(=O)Nc2ccc(Cl)c(C(F)(F)F)c2)cc1Nc1ncnc2cnc(N3CCCCC3)nc12` [III-331] the value was 10 nM.

Under setting [1], `Cc1ccc(C(=O)Nc2cccc(OC(F)(F)F)c2)cc1Nc1ncnc2cnc(N3CCCCC3)nc12` [III-332] returned an IC50 of 4 nM.

The values are drawn from patent US8653087B2, “Pyrido [5, 4-D] pyrimidines as cell proliferation inhibitors” (Boehringer Ingelheim International GmbH, priority 2008, dated 2014).
